This test can be described thus: GFP-wavelength compound autofluorescence in cells – imaging, high-content imaging, artefact control, dose response (AID 2124).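 On all read-outs here: cells exposed to compound for 48 hours before fixing.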 The following applies: cells, GFP-channel autofluorescence, high-content imaging, at 10 µM; for z-score: stronger effect = higher value.

Inconclusive results are not listed. Active and inactive are the calls of the source. How the calls were made is not given here; tested in MIN6 cells.

In the case of `O=C1CN(C(=O)COc2ncnc3ccccc23)c2ccccc2N1`, the z-score was -0.38 (inactive) and the cell count came out at 3020 cells.
For the compound `CC(C)(CNS(=O)(=O)c1ccc(Cl)cc1)N1CCCCC1`, the z-score is -0.34 (inactive) and the cell count is 3730 cells.
For `CC1(C)c2ccccc2N2CC(=O)NC21/C=C/c1ccco1` (centres undefined), the z-score is -0.33 (inactive) and the cell count was 2980 cells.
Regarding `COC(=O)C1=C(N)n2c(s/c(=C\c3cccnc3)c2=O)=C(C(=O)OC)C1c1cccnc1` (centres undefined), the z-score is -0.25 (inactive) and the cell count amounted to 2640 cells.
On to `CN1/C(=C\C=C2C(=O)NC(=S)NC2=O)C(C)(C)c2ccccc21`, for which the z-score was 3.61 and the cell count came out at 2700 cells.
Turning to `Nc1c(C(=O)c2ccc(Cl)cc2)sc2nsc(SCCN3CCOCC3)c12`, the z-score was 0.31 and the cell count was 2540 cells.
On to `CCN1CCN(C2=CC3=CC(=C(C#N)C#N)CCC3CC2)CC1` (centres undefined), for which the z-score is 1.63 and the cell count amounted to 3180 cells.
The corresponding values for `O=S(=O)(Cc1ccc(Cl)cc1)c1ccccc1-c1nnc(-c2ccccc2)o1` are -0.39 (inactive) and 3320 cells.
For `CC(=O)Nc1sc(/C(C#N)=C\c2cccc(Cl)c2)nc1-c1ccc(C)cc1` the same measures were 1.12 and 3000 cells.
For `Cc1ccc(-n2c(C)nc3oc4ccccc4c(=O)c3c2=O)cc1` the same measures were -0.33 (inactive) and 3180 cells.
On to `CN(C)C(=O)C12CCC(C)(c3nc4ccccc4nc31)C2(C)C` (centres undefined), for which the z-score was -0.38 (inactive) and the cell count came out at 3350 cells.
In the case of `CC(=O)c1c(COC(=O)c2ccncc2)nc2ccccc2[n+]1[O-]`, the z-score was -0.33 (inactive) and the cell count was found to be 2880 cells.
The corresponding values for `O=C(NC1=NCCS1)C1Cc2ccccc2CN1C(=O)c1ccccc1` (centres undefined) are -0.34 (inactive) and 2680 cells.
For `COc1cc2c(cc1OC)-c1nncn1C(C)(C)C2` the same measures were -0.32 (inactive) and 3220 cells.
For `Cc1ccc(N=C2NC(=O)/C(=C/c3cn(C)c4ccccc34)S2)cc1C` the same measures were -0.23 (inactive) and 2580 cells.
On to `CCC(C)(C(=O)NC1CCCC1)N(C(=O)CNC(C)=O)c1ccccc1` (centres undefined), for which the z-score was -0.39 (inactive) and the cell count was found to be 2960 cells.
As for `O=C1S/C(=C/c2ccc(N3CCOCC3)o2)C(=O)N1Cc1c(F)cccc1Cl`, the z-score was 1.3 and the cell count came to 3280 cells.
In the case of `CN(C)c1nc(N)nc(/C(C#N)=C/C2CC3C=CC2C3)n1` (centres undefined), the z-score is -0.33 (inactive) and the cell count worked out at 2780 cells.
For `COc1ccc(NC(=O)c2sc3nc(-c4cccnc4)ccc3c2N)cc1`, the z-score is -0.3 (inactive) and the cell count was determined as 2880 cells.
For `Cc1ccccc1NCC(=O)N/N=C/c1c[nH]c2ccccc12` the same measures were -0.33 (inactive) and 2720 cells.
As for `CCN1C(=O)CSc2ccc(C(=O)NCc3ccccc3OC)cc21`, the z-score is -0.33 (inactive) and the cell count turned out to be 2980 cells.
For `CCN(CC)CCN1C(=O)c2oc3ccccc3c(=O)c2C1c1ccccc1` (centres undefined) the same measures were -0.33 (inactive) and 3330 cells.
For `CCCCn1c(=O)[nH]c2nc3cc(N)ccc3nc2c1=O` the same measures were -0.32 (inactive) and 3540 cells.
The corresponding values for `COc1ccc(C(=O)N(CN2CCCC2=O)c2ccc(C)cc2)cc1` are -0.33 (inactive) and 3380 cells.
`CCOC(=O)CC1C(=O)NCCN1S(=O)(=O)c1ccc(Cl)cc1Cl` (centres undefined): the z-score was -0.33 (inactive) and the cell count was 3500 cells.
Regarding `Cc1cc(/C=N/n2cnnc2)c(C)n1-c1cccc(C(=O)O)c1`, the z-score is -0.33 (inactive) and the cell count was 2960 cells.
Regarding `CCN(CC)c1ccc(/C=N/c2sc3c(c2C#N)C2CCN3CC2)c(O)c1`, the z-score is 1.45 and the cell count came to 2490 cells.
For `CCCCn1c(SCC(=O)O)nc2ccccc21` the same measures were -0.33 (inactive) and 2830 cells.
For the compound `CCOC(=O)CC1C(=O)NCCN1c1nc2ccc(C)cn2c(=O)c1/C=C1\SC(=S)N(C(C)CC)C1=O` (centres undefined), the z-score was -0.02 and the cell count worked out at 2960 cells.
As for `COc1ccc(C2C(C(=O)c3ccccc3)=C(C)Nc3nc4ccccc4n32)c(OC)c1` (centres undefined), the z-score is -0.33 (inactive) and the cell count was 3000 cells.
For `COc1ccccc1N1CCN(C/C(O)=C(\C#N)c2nc(-c3ccccc3)cs2)CC1` the same measures were -0.38 (inactive) and 3090 cells.
With `CN(C)C(=O)C1C2NC(=S)N(c3cccc(Cl)c3)C1(C)Oc1ccc(Cl)cc12` (centres undefined), the z-score is -0.39 (inactive) and the cell count was found to be 3180 cells.
`Cc1oc(C)c2c(=O)ccc3c(c12)OC(N)=C(C#N)C3c1ccccc1` (centres undefined): the z-score was -0.38 (inactive) and the cell count was found to be 2830 cells.
`C=CCC(c1ccccc1)N(C(C)=O)c1ccco1` (centres undefined): the z-score was -0.33 (inactive) and the cell count came to 3430 cells.
For `CCS(=O)(=O)N1Cc2ccccc2CC1C(=O)OCC(=O)Nc1ccc(C)cc1` (centres undefined) the same measures were -0.33 (inactive) and 3150 cells.
As for `C=CCN1C(=O)/C(=C/c2ccc(N3CCOCC3)o2)C(=O)NC1=S`, the z-score is -0.32 (inactive) and the cell count was 3270 cells.
`CC1CN(C(=O)CCn2c(=O)oc3ccccc32)CC(C)O1` (centres undefined): the z-score is -0.39 (inactive) and the cell count is 3070 cells.
With `CC1=Nc2ccccc2/C1=C/c1sc(=S)n(-c2cccc(C(=O)O)c2)c1O`, the z-score is -0.37 (inactive) and the cell count came to 3380 cells.
In the case of `C=CCNC(=O)c1c2c(nc3ccccc13)-c1ccccc1CC2`, the z-score is -0.39 (inactive) and the cell count was 3270 cells.
For the compound `CCOC(=O)N1CCN(C(=O)NC2CCCCC2)CC1`, the z-score is -0.38 (inactive) and the cell count is 3150 cells.
For `COc1ccccc1CC(=O)NC1CC(C)(C)NC(C)(C)C1` the same measures were -0.33 (inactive) and 2940 cells.
The corresponding values for `CC1CCCC(C2(O)C(=O)Nc3ccccc32)C1=O` (centres undefined) are -0.33 (inactive) and 3180 cells.
`CC1CCCC(C)N1C(=O)CSc1nnc(-c2cccs2)o1` (centres undefined): the z-score is -0.33 (inactive) and the cell count turned out to be 2440 cells.
On to `CCCCC(=O)Nc1ccc2c(c1)nc1n2CCSC1`, for which the z-score is -0.38 (inactive) and the cell count turned out to be 2870 cells.
The corresponding values for `O=C1/C(=C/c2ccc(N3CCCC3)cc2)NC(=S)N1C1CC1` are 0.41 and 2770 cells.
Turning to `C=CCNC(=O)C1CC2Cn3c(nc4cc5ccccc5cc43)C2N1C` (centres undefined), the z-score was -0.39 (inactive) and the cell count turned out to be 3390 cells.
Regarding `O=C(NCCN1CCCC1)C1(S(=O)(=O)c2ccc(Cl)cc2)CC1`, the z-score was -0.33 (inactive) and the cell count was found to be 2860 cells.

These data come from PubChem BioAssay AID2124 (Sanford-Burnham Center for Chemical Genomics, 2009).
